In US20090053807A1 (Novo Nordisk A/S, priority 1998, published 2009):
Entries after “also recorded” stand apart in the source; their conditions may differ. Positions of bridges follow the written chain, without caps; N, C: chain ends. Non-standard residues stand in square brackets, D forms with d. Residues, ends and D or L forms follow the SMILES beside them. Chains are numbered I, II in the order given. No end group written: not given here. *: point of attachment. aminooxyacetyl = NOCC(=O)*; Glyoxylyl = O=CC(=O)*

The compounds below were run against T1, human insulin receptor (HIR) (Homo sapiens, UniProt P06213) (assay: Insulin receptor binding, competition with 125I-labeled insulin (radio-receptor assay)). Conditions: HIR binding affinity of synthetic peptides.
T1 construct: made in house
T1 sequence (P06213 28-758 limits assumed): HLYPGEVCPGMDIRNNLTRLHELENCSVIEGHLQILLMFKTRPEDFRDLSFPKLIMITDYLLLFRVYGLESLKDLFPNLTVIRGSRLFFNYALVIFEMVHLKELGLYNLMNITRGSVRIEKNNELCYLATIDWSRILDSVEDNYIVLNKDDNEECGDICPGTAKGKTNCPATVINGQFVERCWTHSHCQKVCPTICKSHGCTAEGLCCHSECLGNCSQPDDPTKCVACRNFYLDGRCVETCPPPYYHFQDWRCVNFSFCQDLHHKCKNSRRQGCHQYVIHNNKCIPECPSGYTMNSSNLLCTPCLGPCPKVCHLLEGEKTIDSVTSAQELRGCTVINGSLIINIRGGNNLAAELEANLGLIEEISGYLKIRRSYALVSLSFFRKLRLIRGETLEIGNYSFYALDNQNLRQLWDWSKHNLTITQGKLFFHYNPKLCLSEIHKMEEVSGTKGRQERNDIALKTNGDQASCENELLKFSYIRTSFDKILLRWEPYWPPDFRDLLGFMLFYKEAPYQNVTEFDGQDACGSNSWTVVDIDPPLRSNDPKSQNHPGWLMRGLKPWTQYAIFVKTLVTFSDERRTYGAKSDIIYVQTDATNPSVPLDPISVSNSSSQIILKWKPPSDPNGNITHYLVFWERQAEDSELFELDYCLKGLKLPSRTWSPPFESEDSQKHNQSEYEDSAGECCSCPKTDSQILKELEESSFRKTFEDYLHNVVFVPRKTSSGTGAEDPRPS
T1 sequence (P06213 763-1382 limits assumed): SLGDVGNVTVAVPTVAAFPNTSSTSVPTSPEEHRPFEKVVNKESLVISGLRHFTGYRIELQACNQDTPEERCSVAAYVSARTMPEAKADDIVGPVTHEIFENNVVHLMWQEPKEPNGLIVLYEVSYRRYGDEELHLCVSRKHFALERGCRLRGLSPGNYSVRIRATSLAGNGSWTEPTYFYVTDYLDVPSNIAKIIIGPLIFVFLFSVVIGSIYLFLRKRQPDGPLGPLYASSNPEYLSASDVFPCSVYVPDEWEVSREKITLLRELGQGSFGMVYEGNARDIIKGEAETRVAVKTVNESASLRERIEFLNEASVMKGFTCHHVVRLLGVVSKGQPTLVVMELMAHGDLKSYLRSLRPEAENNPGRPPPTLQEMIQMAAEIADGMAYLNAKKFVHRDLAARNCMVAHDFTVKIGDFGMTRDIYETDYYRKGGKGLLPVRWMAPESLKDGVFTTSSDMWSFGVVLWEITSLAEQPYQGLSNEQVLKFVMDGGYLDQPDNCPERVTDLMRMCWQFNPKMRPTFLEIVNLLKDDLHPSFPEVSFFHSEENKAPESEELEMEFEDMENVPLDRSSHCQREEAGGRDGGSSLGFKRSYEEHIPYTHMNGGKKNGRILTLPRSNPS
SLNFYDALQLLAKK [Peptide S119] was tested, and the Kd was 1800 nM. GSLDESFYDWFERQL [Peptide S395] was tested, and the Kd was 81 nM. Compound `CC(C)C[C@H](NC(=O)[C@@H](N)CCC(N)=O)C(=O)N[C@@H](CCC(=O)O)C(=O)N[C@@H](CCC(=O)O)C(=O)N[C@@H](CCC(=O)O)C(=O)N[C@@H](Cc1c[nH]c2ccccc12)C(=O)N[C@@H](C)C(=O)NCC(=O)N[C@H](C(=O)N[C@@H](CCC(N)=O)C(=O)N[C@H]1CSSC[C@@H](C(=O)N2CCC[C@H]2C(=O)N[C@@H](CO)C(=O)O)NC(=O)[C@H](CCC(=O)O)NC(=O)[C@H](CCCNC(=N)N)NC(=O)CNC(=O)[C@H](Cc2ccc(O)cc2)NC(=O)[C@H](C(C)C)NC(=O)[C@H](CCC(=O)O)NC1=O)C(C)C` [Peptide S226] (HELM PEPTIDE1{Q.L.E.E.E.W.A.G.V.Q.C.E.V.Y.G.R.E.C.P.S}$PEPTIDE1,PEPTIDE1,11:R3-18:R3$$$V2.0; N-terminus and C-terminus assumed; bridges inferred) has a Kd of 1600 nM. Work on HDPFYSMMKSLLK [Peptide S120] yielded a Kd of 2000 nM.

What follows are compounds tested on FDC-P2 cells expressing the IL-3 and human IGF-1R receptors (assay: not given). Conditions: FDC-P2 cells, agonist format; Table 15.
For “WLDQERAWLWCEISGRGCLSGGSGGSGGSGGSGSLDESFYDWFERQLGKK (disulfide 11-18 (inferred)) [D815-RP9 12 aa]”, the “ED50 Growth” value was 10,000 nM. With “WLDQERAWLWCEISGRGCLSGGSGGSGSLDESFYDWFERQLGKK (disulfide 11-18 (inferred)) [D815-RP9 6 aa]” the “ED50 Growth” value was 50 nM.

Same assay, conditions: FDC-P2 cells; Table 15
“WLDQERAWLWCEISGRGCLSGGSGGSGGSGGSGSLDESFYDWFERQLGKK (disulfide 11-18 (inferred)) [D815-RP9 12 aa]” was tested, and the “Max Action” value was 100%. For “WLDQERAWLWCEISGRGCLSGGSGGSGSLDESFYDWFERQLGKK (disulfide 11-18 (inferred)) [D815-RP9 6 aa]”, the “Max Action” value was over 50%.

What follows are compounds tested on free fat cells (assay: Adipocyte / free fat cell (FFC) assay, 3H glucose incorporation into lipid). Conditions: not given.
In the case of (ESFYDWFERQLGK)2-23 [Peptide S415], the “activity in the FFC assay / at IR” value is reported as “highly potent”. For “S453: Site 1-Site 2 heterodimer, C-N linkage (GSLDESFYDWFERQLGKKK[Glyoxylyl][Glyoxylyl]KEWLDQEWAWVQCEVYGRGCPSEE; disulfide 34-41 (inferred); not fully specified (residue 20, bridges); printed as GSLDESFYDWFERQLGKKK-Ald-17-Ald-KEWLDQ EWAWVQCEVYGRGCPSEE; also: Site 1-Site 2 heterodimer, C-N linkage via linker 17) [Peptide S453]”, the “activity in the FFC assay / at IR” value was “antagonist activity; also recorded: antagonist properties”.

Same assay, conditions: FFC assay potency; number of + grades agonist activity
In the case of `CC(C)C[C@H](NC(=O)[C@H](CCC(N)=O)NC(=O)[C@H](CCCNC(=N)N)NC(=O)[C@H](CCC(=O)O)NC(=O)[C@H](Cc1ccccc1)NC(=O)[C@H](Cc1c[nH]c2ccccc12)NC(=O)[C@H](CC(=O)O)NC(=O)[C@H](Cc1ccc(O)cc1)NC(=O)[C@H](Cc1ccccc1)NC(=O)[C@H](CO)NC(=O)[C@H](CCC(=O)O)NC(=O)[C@H](CC(=O)O)NC(=O)[C@H](CC(C)C)NC(=O)[C@H](CO)NC(=O)CNC(=O)CNC(=O)[C@H](CO)NC(=O)[C@@H]1CSSC[C@H](NC(=O)[C@H](CC(C)C)NC(=O)[C@@H](N)Cc2c[nH]cn2)C(=O)N[C@@H](C(C)C)C(=O)N[C@@H](CC(C)C)C(=O)N[C@@H](CCC(=O)O)C(=O)N[C@@H](CCC(=O)O)C(=O)N[C@@H](CC(C)C)C(=O)N[C@@H](Cc2ccccc2)C(=O)N[C@@H](Cc2c[nH]c3ccccc23)C(=O)NCC(=O)N[C@@H](C)C(=O)N[C@@H](CO)C(=O)N[C@@H](CC(C)C)C(=O)N[C@@H](Cc2ccccc2)C(=O)NCC(=O)N[C@@H](Cc2ccc(O)cc2)C(=O)N1)C(=O)O` [Peptide S521] (HELM PEPTIDE1{H.L.C.V.L.E.E.L.F.W.G.A.S.L.F.G.Y.C.S.G.G.S.L.D.E.S.F.Y.D.W.F.E.R.Q.L}$PEPTIDE1,PEPTIDE1,3:R3-18:R3$$$V2.0; N-terminus and C-terminus assumed; bridges inferred), the FEC is reported as “+”.

Same assay, conditions: FFC assay potency; number of + grades agonist potency
`CC(C)C[C@@H]1NC(=O)[C@H](CO)NC(=O)[C@H](C)NC(=O)CNC(=O)CNC(=O)[C@H](Cc2ccccc2)NC(=O)[C@H](CC(C)C)NC(=O)[C@H](CCC(=O)O)NC(=O)[C@H](CCC(N)=O)NC(=O)[C@H](CC(C)C)NC(=O)[C@H](Cc2ccccc2)NC(=O)[C@@H](NC(=O)[C@H](CC(C)C)NC(=O)[C@@H]2CCCN2)CSSC[C@@H](C(=O)N[C@@H](CO)C(=O)NCC(=O)O)NC(=O)[C@H](Cc2ccc(O)cc2)NC(=O)CNC(=O)CNC1=O` [Peptide S262] (HELM PEPTIDE1{P.L.C.F.L.Q.E.L.F.G.G.A.S.L.G.G.Y.C.S.G}$PEPTIDE1,PEPTIDE1,3:R3-18:R3$$$V2.0; N-terminus and C-terminus assumed; bridges inferred) was tested, and the FEC was 0. With “S326 (GIISQSCPESFYDWFAGQVSDPWWCW) [Peptide S326]” the FEC was “−”. For `CC(C)C[C@@H]1NC(=O)[C@H](CO)NC(=O)[C@H](C)NC(=O)CNC(=O)[C@H](Cc2c[nH]c3ccccc23)NC(=O)[C@H](Cc2ccccc2)NC(=O)[C@H](CC(C)C)NC(=O)[C@H](CCC(=O)O)NC(=O)[C@H](CCC(=O)O)NC(=O)[C@H](CC(C)C)NC(=O)[C@H](C(C)C)NC(=O)[C@@H](NC(=O)[C@H](CC(C)C)NC(=O)[C@H](Cc2c[nH]cn2)NC(=O)[C@@H](N)CCCCN)CSSC[C@@H](C(=O)N[C@@H](CO)C(=O)NCC(=O)N[C@@H](CCCCN)C(=O)N[C@@H](CCCCN)C(N)=O)NC(=O)[C@H](Cc2ccc(O)cc2)NC(=O)CNC(=O)[C@H](Cc2ccccc2)NC1=O` [Peptide S331] (HELM PEPTIDE1{K.H.L.C.V.L.E.E.L.F.W.G.A.S.L.F.G.Y.C.S.G.K.K.[am]}$PEPTIDE1,PEPTIDE1,4:R3-19:R3$$$V2.0), the FEC was 0. `CC[C@@H](C)[C@@H](NC(=O)[C@H](CCC(=O)O)NC(=O)[C@H](CC(=O)O)NC(=O)[C@H](Cc1ccccc1)NC(=O)[C@H](Cc1c[nH]c2ccccc12)NC(=O)[C@H](CC(=O)O)NC(=O)[C@H](Cc1ccc(O)cc1)NC(=O)[C@H](Cc1ccccc1)NC(=O)[C@H](CCC(=O)O)NC(=O)C(C)(C)NC(=O)[C@H](CC(=O)O)NC(=O)C1(NC(=O)[C@@H](N)CC(=O)O)Cc2ccccc2C1)C(=O)N1CCC[C@H]1C(=O)N[C@H](CCC(N)=O)C(N)=O` [Peptide S319] (HELM PEPTIDE1{D.[O=C(C1(N[*:1])Cc2ccccc2C1)[*:2]].D.[Aib].E.F.Y.D.W.F.D.E.[dI].P.[dQ].[am]}$$$$V2.0) was tested, and the FEC was 0. Compound `CC[C@@H](C)[C@@H](NC(=O)[C@H](CCC(=O)O)NC(=O)[C@H](CC(=O)O)NC(=O)[C@H](Cc1ccccc1)NC(=O)[C@H](Cc1c[nH]c2ccccc12)NC(=O)[C@H](CC(=O)O)NC(=O)[C@H](Cc1ccc(O)cc1)NC(=O)[C@H](Cc1ccccc1)NC(=O)[C@@H]1C[C@@H](O)CN1C(=O)[C@H](CC(=O)O)NC(=O)[C@H](CCCNC(=N)N)NC(=O)[C@@H](CCC(=O)O)NC(=O)[C@@H](N)Cc1ccc(O)cc1)C(=O)NCC(=O)NCC(N)=O` [Peptide S321] has an FEC of 0. In the case of `CC[C@H](C)[C@@H]1NC(=O)[C@H](CCC(=O)O)NC(=O)[C@@H](NC(=O)[C@H](Cc2c[nH]c3ccccc23)NC(=O)[C@@H](NC(=O)[C@H](Cc2c[nH]c3ccccc23)NC(=O)[C@H](C)NC(=O)[C@H](CCCNC(=N)N)NC(=O)[C@H](CCC(=O)O)NC(=O)[C@H](CCC(N)=O)NC(=O)[C@H](CCC(=O)O)NC(=O)[C@H](CC(C)C)NC(=O)[C@@H](N)Cc2c[nH]c3ccccc23)[C@@H](C)CC)CSSC[C@@H](C(=O)N[C@@H](CCCNC(=N)N)C(=O)N[C@@H](C)C(=O)O)NC(=O)CNC(=O)[C@H](CO)NC(=O)CNC(=O)[C@H](CCC(N)=O)NC1=O` [Peptide S263] (HELM PEPTIDE1{W.L.E.Q.E.R.A.W.I.W.C.E.I.Q.G.S.G.C.R.A}$PEPTIDE1,PEPTIDE1,11:R3-18:R3$$$V2.0; N-terminus and C-terminus assumed; bridges inferred), the FEC is reported as 0. For `CC(C)[C@H](NC(=O)[C@H](Cc1ccccc1)NC(=O)[C@H](Cc1c[nH]c2ccccc12)NC(=O)[C@H](CC(=O)O)NC(=O)[C@H](Cc1ccc(O)cc1)NC(=O)[C@H](Cc1ccccc1)NC(=O)[C@H](CC(N)=O)NC(=O)[C@H](CCC(=O)O)NC(=O)[C@H](Cc1c[nH]cn1)NC(=O)[C@@H](N)Cc1ccccc1)C(=O)N[C@@H](CCCNC(=N)N)C(=O)N[C@@H](CCC(N)=O)C(=O)N[C@H](C(=O)N[C@@H](CO)C(=O)N[C@@H](CCCCN)C(=O)N[C@@H](CCCCN)C(=O)N[C@@H](CNC(=O)CON)C(N)=O)C(C)C` [Peptide S131], the FEC was “+”. “S419 (chain 1 K(aminooxyacetyl)EWLDQEWAWVQCEVYGRGCPSEE; chain 2 K(aminooxyacetyl)EWLDQEWAWVQCEVYGRGCPSEE; disulfide I:13-I:20, II:13-II:20 (inferred); not fully specified (bridges); also: dimer, the two chains joined N-terminus to N-terminus through linker 14 at the side chain of residue 1) [Peptide S419]” showed an FEC of 0. In the case of `CC(C)C[C@H](NC(=O)[C@H](CCC(=O)O)NC(=O)[C@H](C)NC(=O)[C@@H](NC(=O)[C@H](Cc1ccccc1)NC(=O)[C@H](Cc1c[nH]c2ccccc12)NC(=O)[C@H](CC(=O)O)NC(=O)[C@H](Cc1ccc(O)cc1)NC(=O)[C@H](Cc1ccccc1)NC(=O)[C@H](CC(N)=O)NC(=O)[C@H](C)NC(=O)[C@H](CC(N)=O)NC(=O)[C@H](CCCNC(=N)N)NC(=O)[C@H](CCC(N)=O)NC(=O)[C@H](CC(C)C)NC(=O)[C@H](Cc1c[nH]c2ccccc12)NC(=O)[C@H](CC(=O)O)NC(=O)[C@@H](NC(=O)[C@H](CCCNC(=N)N)NC(=O)CNC(=O)[C@@H](N)CNC(=O)CON)C(C)C)C(C)C)C(=O)NCC(N)=O` [Peptide S245], the FEC is reported as “+”. `CC[C@@H](C)[C@@H](NC(=O)[C@H](CCC(=O)O)NC(=O)[C@H](CC(=O)O)NC(=O)[C@H](Cc1ccccc1)NC(=O)[C@H](Cc1c[nH]c2ccccc12)NC(=O)[C@H](CC(=O)O)NC(=O)[C@H](Cc1ccc(O)cc1)NC(=O)[C@H](Cc1ccccc1)NC(=O)[C@@H]1C[C@@H](O)CN1C(=O)[C@H](CC(=O)O)NC(=O)[C@H](CCCNC(=N)N)NC(=O)[C@H](Cc1c[nH]c2ccccc12)NC(=O)[C@@H](N)CCC(=O)O)C(=O)N1C[C@H](O)C[C@H]1C(=O)N[C@H](CCC(=O)O)C(N)=O` [Peptide S322] (HELM PEPTIDE1{E.W.R.D.[Hyp].F.Y.D.W.F.D.E.[dI].[Hyp].[dE].[am]}$$$$V2.0) gave an FEC of 0.
